Test results as given in patent US20060063187A1, “Modulation of XBP-1 activity for treatment of metabolic disorders” (priority 2004, published 2006).

How the values were obtained:
Fao liver cells = assay: ER stress and insulin receptor signaling in Fao liver cells (immunoprecipitation / immunoblotting); format: cell-based, rat; conditions: for serine (Ser307) phosphorylation of IRS-1: Fao cells treated with ER stress inducer (tunicamycin 5 μg/ml 3 h; thapsigargin 300 nM)
Description: (§1) FIG. 2 depicts that the induction of ER stress impairs insulin action through JNK mediated phosphorylation of IRS-1. (A) ER stress was induced in Fao liver cells by a 3-hour treatment with 5 μg/ml tunicamycin (Tun). Cells were subsequently stimulated with insulin (Ins). IRS-1 tyrosine and serine (Ser307) phosphorylation, Akt phosphorylation (Ser473), insulin receptor (IR) tyrosine phosphorylation, and their total protein levels were examined using either immunoprecipitation (IP) followed by immunoblotting (IB) or direct immunoblotting. (B) Quantitation of IRS-1 (tyrosine and Ser307), Akt (Ser473), and IR (tyrosine) phosphorylation under the experimental conditions described in (A) with normalization to protein levels for each molecule. (C) Inhibition of ER stress-induced (300 nM thapsigargin for 4 hours) Ser307 phosphorylation of IRS-1 by JNK-1 inhibitor, SP600125 (JNKi, 25 μM). (D) Quantitation of IRS-1 Ser307 phosphorylation under conditions described in (C). (E) Reversal of ER stress-induced inhibition of insulin-stimulated tyrosine phosphorylation (pY) of IRS-1 by a JNK inhibitor. (F) Quantitation of insulin-induced IRS-1 tyrosine phosphorylation levels described in (E). (G) JNK activity, Ser307 phosphorylation of IRS-1, and total IRS-1 levels at indicated times following tunicamycin treatment (Tun, 10 μg/ml for I hour) in IRE-1α^+/+ and IRE-1α^−/− fibroblasts. (H) Insulin-stimulated IRS-1 tyrosine phosphorylation and total IRS-1 levels following tunicamycin treatment (Tun, 10 μg/ml for 1 hour) in IRE-1α^+/+ and IRE-1α^−/− fibroblasts. […] All graphs show mean ±SEM from at least 2 independent experiments and statistical significance from the controls is indicated by * with p<0.005.
FIG. 8 depicts inhibition of insulin receptor signaling by thapsigargin-induced ER stress and the role of Ca^+2 levels in IRS-1 serine phosphorylation. (A) ER stress was induced in Fao cells by 1 hour treatment with 300 nM thapsigargin (Thap), and cells were subsequently stimulated with insulin (Ins). IRS-1 tyrosine phosphorylation (pY) and serine phosphorylation (pSer307), insulin receptor (IR) tyrosine phosphorylation, and total protein levels were examined using either immunoprecipitation (UP) followed by immunoblotting (IB) or direct immunobloting. (B) Fao cells were treated with sulindac sulfide (SS: 0, 7.5, 30, and 60 μM) for 45 minutes with or without an additional hour of exposure to 300 nM thapsigargin (Thap). IRS-1 serine phosphorylation and total IRS-1 protein levels were examined as described above.
Cells: FaO cells were cultured with RPMI 1640 (Gibco) containing 10% fetal bovine serum (FBS). At 70-80% confluency, cells were serum depleted for 12 hours before starting the experiments. Reagents including tunicamycin, thapsigargin, and JNK inhibitors were gently added to the culture dishes in the incubator to prevent any environmental stress. JNK inhibitors were added 1 hour before tunicamycine/thapsigargin treatment. The XBP-1^−/− MEF cells, IRE-1α^−/− MEF cells (provided by Dr. David Ron (New York University School of Medicine) and their wild type (WT) controls were cultured in Dulbecco's Modified Eagle Medium (DMEM) (Gibco) containing 10% FBS. Experiments in MEF cells were carried out similar to those in FaO cells except after 6 hours of serum depletion.
Protein Extracts From Cells: At the end of each treatment, cells were immediately frozen in liquid nitrogen and kept at −80° C. Protein extracts were prepared with a lysis buffer, containing 25 mM Tris-HCl (pH7.4), 2 mM Na3VO4, 10 mM NaF, 10 mM Na4P2O7, 1 mM EGTA, 1 mM EDTA, 1% NP40, 5 μg/ml leupeptin, 5 μg/ml aprotinin, 10 nM okadaic acid, and 1 mM PMSF. Immunoprecipitations and immunoblotting experiments were performed with […] and 75 ug total protein, respectively.

[1] = tested on: IRE-1α+/+ (WT) fibroblasts; assay: ER stress-induced JNK activation and IRS-1 phosphorylation in wild type fibroblasts; format: cell-based, mouse; conditions: tunicamycin 10 μg/ml for 1 hour
Description: as §1
Cells: FaO cells were cultured with RPMI 1640 (Gibco) containing 10% fetal bovine serum (FBS). At 70-80% confluency, cells were serum depleted for 12 hours before starting the experiments. Reagents including tunicamycin, thapsigargin, and JNK inhibitors were gently added to the culture dishes in the incubator to prevent any environmental stress. […]

IRE-1α−/− fibroblasts = assay: ER stress-induced JNK activation and IRS-1 phosphorylation in IRE-1α-deficient fibroblasts; format: cell-based, mouse; conditions: tunicamycin 10 μg/ml for 1 hour
Description: FIG. 2 depicts that the induction of ER stress impairs insulin action through JNK mediated phosphorylation of IRS-1. (A) ER stress was induced in Fao liver cells by a 3-hour treatment with 5 μg/ml tunicamycin (Tun). Cells were subsequently stimulated with insulin (Ins). IRS-1 tyrosine and serine (Ser307) phosphorylation, Akt phosphorylation (Ser473), insulin receptor (IR) tyrosine phosphorylation, and their total protein levels were examined using either immunoprecipitation (IP) followed by immunoblotting (IB) or direct immunoblotting. (B) Quantitation of IRS-1 (tyrosine and Ser307), Akt (Ser473), and IR (tyrosine) phosphorylation under the experimental conditions described in (A) with normalization to protein levels for each molecule. (C) Inhibition of ER stress-induced (300 nM thapsigargin for 4 hours) Ser307 phosphorylation of IRS-1 by JNK-1 inhibitor, SP600125 (JNKi, 25 μM). (D) Quantitation of IRS-1 Ser307 phosphorylation under conditions described in (C). (E) Reversal of ER stress-induced inhibition of insulin-stimulated tyrosine phosphorylation (pY) of IRS-1 by a JNK inhibitor. (F) Quantitation of insulin-induced IRS-1 tyrosine phosphorylation levels described in (E). (G) JNK activity, Ser307 phosphorylation of IRS-1, and total IRS-1 levels at indicated times following tunicamycin treatment (Tun, 10 μg/ml for I hour) in IRE-1α^+/+ and IRE-1α^−/− fibroblasts. […]

[2] = tested on: mouse embryonic fibroblasts (MEF) without exogenous XBP-1s expression; assay: ER stress response in MEF-tet-off fibroblasts without exogenous XBP-1s expression; format: cell-based; conditions: tunicamycin 2 μg/ml, fibroblasts without exogenous XBP-1s (+Dox)
Text: FIG. 3 depicts that alteration of the ER stress response by manipulation of XBP-1 levels leads to alterations in insulin receptor signaling. ER stress responses in XBP-1s overexpressing cells, XBP-1^−/− cells, and their controls. (A) Induction of XBP-1s expression upon removal of doxycycline in mouse embryonic fibroblasts (MEF). (B) Southern blot analysis of XBP-1^−/− MEF cells and their WT controls for the wild type (9.4 kb) and targeted (6.5 kb) alleles. (C) PERK phosphorylation (p-PERK) and JNK activity in the XBP-1s overexpressing cells and their control cells (−Dox and +Dox, respectively) upon tunicamycin treatment (Tun, 2 μg/ml). (D) PERK phosphorylation and JNK activity upon low dose tunicamycin treatment (Tun, 0.5 μg/ml) in XBP-1^−/−-MEF cells and their WT controls. (E) IRS-1 Ser307 phosphorylation upon tunicamycin treatment (Tun, 2 μg/ml) in the XBP-1s overexpressingcells and the control cells (−Dox and +Dox, respectively), detected using immunoprecipitation (IP) of IRS-1 followed by immunoblotting (IB) with an IRS-1 phosphoserine 307-specific antibody. […] The ratio of IRS-1 tyrosine phosphorylation to total IRS-1 level was summarized from independent experiments and was presented in the graph. (G) IRS-1 Ser307 phosphorylation upon tunicamycin treatment (Tun, 0.5 μg/ml) in XBP-1^−/− cells and WT controls was detected as described in panel C. […] The ratio of IRS-1 tyrosine phosphorylation to total IRS-1 level was summarized from independent experiments and presented in the graph. All graphs show mean±SEM from at least 2 independent experiments and statistically significance from the controls is indicated by * with p<0.005.
Overexpression of XBPIs in MEFs: MEF-tet-off cells (Clontech) were cultured in DMEM with 100 μg/ml G418 and 1 μg/ml doxycycline. The MEF-tet-off cells express exogenous tTA (tetracycline-controlled transactivator) protein, which binds to TRE (tetracycline response element) and activates transcription only in the absence of tetracycline or doxycycline. The cDNA of the spliced form of XBP-1 was ligated into pTRE2hyg2 plasmid (Clontech). The MEF-tet-off cells were transfected with the TRE2hyg2-XBP-1s plasmid, followed by selection in the presence of […] hygromycine B. Individual clones of stable transfectants were isolated and doxycycline-dependent XBP-1s expression was confirmed by immunoblotting.
Protein Extracts From Cells: At the end of each treatment, cells were immediately frozen in liquid nitrogen and kept at −80° C. Protein extracts were prepared with a lysis buffer, containing 25 mM Tris-HCl (pH7.4), 2 mM Na3VO4, 10 mM NaF, 10 mM Na4P2O7, 1 mM EGTA, 1 mM EDTA, 1% NP40, 5 μg/ml leupeptin, 5 μg/ml aprotinin, 10 nM okadaic acid, and 1 mM PMSF. […]

WT MEF cells = assay: ER stress response to low dose tunicamycin in WT MEF cells; format: cell-based, mouse; conditions: low dose of tunicamycin 0.5 μg/ml
Text: (§2) FIG. 3 depicts that alteration of the ER stress response by manipulation of XBP-1 levels leads to alterations in insulin receptor signaling. ER stress responses in XBP-1s overexpressing cells, XBP-1^−/− cells, and their controls. (A) Induction of XBP-1s expression upon removal of doxycycline in mouse embryonic fibroblasts (MEF). (B) Southern blot analysis of XBP-1^−/− MEF cells and their WT controls for the wild type (9.4 kb) and targeted (6.5 kb) alleles. (C) PERK phosphorylation (p-PERK) and JNK activity in the XBP-1s overexpressing cells and their control cells (−Dox and +Dox, respectively) upon tunicamycin treatment (Tun, 2 μg/ml). (D) PERK phosphorylation and JNK activity upon low dose tunicamycin treatment (Tun, 0.5 μg/ml) in XBP-1^−/−-MEF cells and their WT controls. (E) IRS-1 Ser307 phosphorylation upon tunicamycin treatment (Tun, 2 μg/ml) in the XBP-1s overexpressingcells and the control cells (−Dox and +Dox, respectively), detected using immunoprecipitation (IP) of IRS-1 followed by immunoblotting (IB) with an IRS-1 phosphoserine 307-specific antibody. […] The ratio of IRS-1 tyrosine phosphorylation to total IRS-1 level was summarized from independent experiments and was presented in the graph. (G) IRS-1 Ser307 phosphorylation upon tunicamycin treatment (Tun, 0.5 μg/ml) in XBP-1^−/− cells and WT controls was detected as described in panel C. […]

XBP-1−/− MEF cells = assay: ER stress response to low dose tunicamycin in XBP-1−/− MEF cells; format: cell-based, mouse
Text: as §2

| Molecule | insulin-stimulated tyrosine phosphorylation of IRS-1 (Fao liver cells; Fao cells pretreated with ER stress inducer (tunicamycin 5 μg/ml 3 h; thapsigargin 300 nM 1 h), then insulin) | serine (Ser307) phosphorylation of IRS-1 (Fao liver cells) | insulin-induced Akt phosphorylation (Ser473) (Fao liver cells; Fao cells, tunicamycin pretreatment 5 μg/ml 3 h, then insulin) | insulin-stimulated tyrosine phosphorylation of IRS-1 ([1]; WT cells, then insulin) | JNK activation ([1]; WT fibroblasts) | phosphorylation of IRS-1 at Ser307 ([1]; WT fibroblasts) | insulin-stimulated tyrosine phosphorylation of IRS-1 (IRE-1α−/− fibroblasts; IRE-1α−/− cells, then insulin) | phosphorylation of IRS-1 at Ser307 (IRE-1α−/− fibroblasts; IRE-1α−/− fibroblasts) | JNK activation [2] | PERK phosphorylation [2] | peak of PERK phosphorylation [2] | start of PERK phosphorylation [2] | ER stress (PERK phosphorylation, JNK activation) (WT MEF cells) | ER stress response (PERK phosphorylation, JNK activation) (XBP-1−/− MEF cells; low dose of tunicamycin 0.5 μg/ml, XBP-1−/− MEFs) | IRS-1 serine (Ser307) phosphorylation (XBP-1−/− MEF cells; tunicamycin 0.5 μg/ml, XBP-1−/− MEFs compared with XBP-1+/+ controls) | thapsigargin-induced IRS-1 serine phosphorylation (Fao liver cells; sulindac sulfide 45 minutes, then additional hour of 300 nM thapsigargin) | Ser307 phosphorylation of IRS-1 (Fao liver cells; sulindac sulfide alone (0, 7.5, 30, 60 μM, 45 minutes)) | insulin receptor signaling (Fao liver cells; Fao cells, thapsigargin 300 nM 1 h, then insulin) |
| --- | --- | --- | --- | --- | --- | --- | --- | --- | --- | --- | --- | --- | --- | --- | --- | --- | --- | --- |
| tunicamycin | significantly decreased | significant increase | suppressed | inhibited | strong activation | stimulated | no such effect was detected | not | rapid and robust activation | strong | 3 to 4 h | 30 min | failed to stimulate significant ER stress | strong ER stress response | strongly induced | – | – | – |
| CSc1ccc(/C=C2/C(C)=C(CC(=O)O)c3cc(F)ccc32)cc1 [sulindac sulfide] | – | – | – | – | – | – | – | – | – | – | – | – | – | – | – | did not interfere | no effect | – |
| C/C=C(/C)C(=O)O[C@H]1C(C)=C2[C@H]([C@@H]1OC(=O)CCCCCCC)[C@@](C)(OC(C)=O)C[C@H](OC(=O)CCC)[C@@]1(O)[C@H]2OC(=O)[C@@]1(C)O [thapsigargin] | – | increased | – | – | – | – | – | – | – | – | – | – | – | – | – | – | – | suppressed |
